Laboratory results taken from US7034039B2, “Fused heterocyclic compounds” (Takeda Pharmaceutical Company Limited, priority 2001, dated 2006).
Where a name gives a salt, the structure may show the parent alone.

Tests used:
[1] = biological target: T1, dipeptidyl peptidase IV in rat plasma (Rattus norvegicus, UniProt P14740); assay: Determination of dipeptidyl peptidase IV inhibitory activity in rat plasma; assay type: biochemical; conditions: SD rat plasma, substrate Gly-Pro-p-NA, 30° C., absorbance 405 nm after 0 h and 1 h
T1 construct: Plasma (20 μl) prepared from blood of SD rat by a conventional method; from tissue; host or cells: plasma of SD rat
Experimental: Determination of Dipeptidyl Peptidase IV Inhibitory Activity in Rat Plasma
An N,N-dimethylformamide solution (1 μl) containing the test compound was added to a mixture of water (69 μl), 1M Tris-hydrochloride buffer (10 μl, pH 7.5) and 1 mM aqueous Gly-Pro-p-NA solution (100 μl) to prepare a mixed solution. Plasma (20 μl) prepared from blood of SD rat by a conventional method was added the above-mentioned, mixed solution and the enzyme reaction was started at 30° C. The absorbance after 0 h and 1 h was measured using a microplate reader at a wavelength of 405 nm and an increase (ΔODs) was determined. At the same time, an increase (ΔODc) in absorbance of the reaction mixture without the test compound, and an increase (ΔODb) in absorbance of the reaction mixture without the test compound and the enzyme were determined and percent inhibition of dipeptidyl peptidase IV enzyme activity was calculated from the following formula: {1-[(ΔODs−ΔODb)/(ΔODc−ΔODb)]}×100

[2] = system: Wistar fatty rats; assay: Plasma glucose-lowering effect and insulinotropic effect in rat (oral glucose tolerance test); assay type: in vivo; conditions: female Wistar fatty rats, 3 mg/kg orally 60 min before glucose load (1 g/kg), blood at 30 min after glucose load
Experimental: Plasma Glucose-lowering Effect and Insulinotropic Effect in Rat
Female Wistar fatty rats (17-week-old, 6 per group) were fasted overnight and blood was drawn from the tail vein. The plasma glucose level before administration of the test compound was measured. Then the test compound (3 mg/kg body weight/5 mL) suspended in 0.5% methyl cellulose was orally administered to the rats using a gastric tube. Oral glucose tolerance test (1 g/kg body weight/5 mL) was started 60 min later. Blood was drawn at 30 min after starting glucose load, and plasma glucose level and insulin level of the serum were measured.

[3] = biological target: T2, Caco-2-derived dipeptidyl peptidase IV (Homo sapiens, UniProt P27487); assay: Determination of Caco-2-derived dipeptidyl peptidase IV inhibitory activity; assay type: biochemical; conditions: Caco-2 crude enzyme solution, substrate Gly-Pro-p-NA, 37° C., absorbance 405 nm after 0 h and 3 h
T2 construct: A dipeptidyl peptidase IV crude enzyme solution was prepared from culture cell of Caco-2 (ATCC HTB-37); endogenous in cells; host or cells: Caco-2 (ATCC HTB-37)
T2 sequence (P27487 whole entry): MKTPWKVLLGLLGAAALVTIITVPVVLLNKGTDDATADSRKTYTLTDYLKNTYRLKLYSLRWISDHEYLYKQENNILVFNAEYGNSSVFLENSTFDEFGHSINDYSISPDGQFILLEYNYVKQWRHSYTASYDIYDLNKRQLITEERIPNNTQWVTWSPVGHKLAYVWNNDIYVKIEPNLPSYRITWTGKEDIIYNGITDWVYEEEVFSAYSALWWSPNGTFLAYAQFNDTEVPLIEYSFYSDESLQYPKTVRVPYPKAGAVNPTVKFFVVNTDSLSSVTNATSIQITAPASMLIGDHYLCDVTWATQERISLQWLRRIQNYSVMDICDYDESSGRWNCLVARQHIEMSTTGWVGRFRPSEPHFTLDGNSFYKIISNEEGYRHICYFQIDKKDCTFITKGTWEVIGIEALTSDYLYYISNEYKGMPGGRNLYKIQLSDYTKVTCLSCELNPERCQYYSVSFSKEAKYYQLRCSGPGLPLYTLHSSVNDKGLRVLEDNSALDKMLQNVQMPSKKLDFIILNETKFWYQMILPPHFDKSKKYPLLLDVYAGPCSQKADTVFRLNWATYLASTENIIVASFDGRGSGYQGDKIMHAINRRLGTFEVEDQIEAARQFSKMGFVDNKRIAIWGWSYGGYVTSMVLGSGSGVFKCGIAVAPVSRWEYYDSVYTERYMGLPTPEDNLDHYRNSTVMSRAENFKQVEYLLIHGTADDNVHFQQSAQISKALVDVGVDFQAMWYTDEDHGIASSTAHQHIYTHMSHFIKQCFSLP
Experimental: 1) Preparation of Dipeptidyl Peptidase IV Crude Enzyme Solution
A dipeptidyl peptidase IV crude enzyme solution was prepared from culture cell of Caco-2 (ATCC HTB-37). The Caco-2 cells were cultured in D-MEM medium (manufactured by Nissui Pharmaceutical Co., Ltd.) containing 10% FBS (fetal calf serum (manufactured by GIBCO)). The cell extract was prepared by soaking the cells collected by removing the medium in 20 mM phosphate buffer. (pH 7.5) containing 0.5% Triton X-100, extracting for 30 min in an ice bath and separating the supernatant obtained by centrifugation 1500 g for 30 min. The cell extract (22 ml) was applied to a column of Sephadex G-200 (600 ml, manufactured by Pharmacia Corporation) equilibrated with 20 mM Tris-hydrochloride buffer (pH 7.5) and eluted with the same buffer. The elution was fractionated by 10 ml, examined for enzyme activity and 190 ml–280 ml fractions (90 ml) were collected. […]
An N,N-dimethylformamide solution (5 μl) containing the test compound was added to a mixture of water (25 μl), 1M Tris-hydrochloride buffer (10 μl, pH 7.5) and 1 mM aqueous glycylprolyl-p-nitroanilide (Gly-Pro-p-NA; manufactured by Backem AG) solution (50 μl) to prepare a mixed solution. […] The absorbance after 0 h and 3 h was measured using a microplate reader (Multiskan Bichromatic; manufactured by Labsystems) at a wavelength of 405 nm and an increase (ΔODs) was determined. […]

T1 sequence (P14740 38-767 limits assumed): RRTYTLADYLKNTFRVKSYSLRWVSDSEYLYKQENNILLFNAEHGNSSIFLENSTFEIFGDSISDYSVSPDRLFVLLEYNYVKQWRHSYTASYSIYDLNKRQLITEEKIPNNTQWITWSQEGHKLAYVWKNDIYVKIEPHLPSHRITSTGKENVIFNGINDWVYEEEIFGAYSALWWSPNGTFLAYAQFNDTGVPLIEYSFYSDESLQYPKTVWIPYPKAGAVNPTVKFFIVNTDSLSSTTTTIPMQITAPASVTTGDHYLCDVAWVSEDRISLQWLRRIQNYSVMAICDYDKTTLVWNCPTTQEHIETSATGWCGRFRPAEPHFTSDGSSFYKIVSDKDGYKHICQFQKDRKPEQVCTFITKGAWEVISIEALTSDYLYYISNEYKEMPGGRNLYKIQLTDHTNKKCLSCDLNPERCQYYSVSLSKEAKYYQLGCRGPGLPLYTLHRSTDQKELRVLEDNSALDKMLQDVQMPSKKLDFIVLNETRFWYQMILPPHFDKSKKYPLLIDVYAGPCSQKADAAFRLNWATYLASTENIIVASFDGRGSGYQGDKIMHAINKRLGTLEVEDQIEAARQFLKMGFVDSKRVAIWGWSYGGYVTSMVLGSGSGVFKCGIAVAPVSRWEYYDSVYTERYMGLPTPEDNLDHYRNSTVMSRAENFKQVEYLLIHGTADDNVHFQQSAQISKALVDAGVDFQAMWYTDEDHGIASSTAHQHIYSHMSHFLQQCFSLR

melting point	SMILES	also measured
178 to 180 °C (dec.)	Cc1ccc(-c2c(CN)n(CC(C)C)c(=O)c3ccccc23)cc1.Cl	
179 °C (dec.)	CC(=O)c1ccc2c(=O)n(CC(C)C)c(CN)c(-c3ccccc3)c2c1.Cl	
218 to 220 °C	CC(C)Cn1c(CN)c(-c2ccccc2)c2cc(-c3nn[nH]n3)ccc2c1=O.Cl	
252 to 255 °C	CSc1ccc2c(=O)n(CC(C)C)c(CN)c(-c3ccccc3)c2c1.Cl	
209 °C (dec.)	CC(C)Cn1c(CN)c(-c2ccccc2)c2cc(S(C)(=O)=O)ccc2c1=O.Cl	
253 °C (dec.)	CC(C)Cn1c(CN)c(-c2ccccc2)c2cc(-c3noc(=O)[nH]3)ccc2c1=O.Cl	
232 to 237 °C	CC(C)Cn1c(CN)c(-c2ccccc2)c2cc(-c3nsc(=O)[nH]3)ccc2c1=O.Cl	
142 to 144 °C	CC(C)Cn1c(CN)c(-c2ccccc2)c2cc(CC#N)ccc2c1=O.Cl	
223 to 225 °C	CC(C)Cn1c(CN)c(-c2ccccc2)c2cc(/C=C/C(N)=O)ccc2c1=O.Cl (hydrate or solvate)	
162 to 163 °C	Cc1csc(-c2ccc3c(=O)n(CC(C)C)c(CN)c(-c4ccccc4)c3c2)n1 (hydrate or solvate) [Example 194, 3-(Aminomethyl)-2-isobutyl-6-(4-methyl-1,3-thiazol-2-yl)-4-phenyl-1(2H)-isoquinolinone]	
129 to 130 °C	CC(C)Cn1c(CN)c(-c2ccccc2)c2cc(Br)ccc2c1=O [Example 106, 3-Aminomethyl-6-bromo-2-isobutyl-4-phenyl-1(2H)-isoquinolinone]	
126 to 127 °C	CCn1c(CN)c(-c2ccccc2)c2cc(Cl)ccc2c1=O [Example 113, 3-(Aminomethyl)-6-chloro-2-ethyl-4-phenyl-1(2H)-isoquinolinone]	
123 to 124 °C	CC(C)Cn1c(CN)c(-c2ccccc2)c2cc(Cl)ccc2c1=O [Example 118, 3-(Aminomethyl)-6-chloro-2-isobutyl-4-phenyl-1(2H)-isoquinolinone]	
129 to 130 °C	CC(C)Cn1c(CN)c(-c2ccccc2)c2ccccc2c1=O [Example 123, 3-(Aminomethyl)-2-isobutyl-4-phenyl-1(2H)-isoquinolinone]	
119 to 120 °C	CC(C)Cn1c(CN)c(-c2ccc(Cl)cc2)c2ccccc2c1=O [Example 124, 3-(Aminomethyl)-4-(4-chlorophenyl)-2-isobutyl-1(2H)-isoquinolinone]	
228 to 230 °C	CC(C)Cn1c(CN)c(-c2ccccc2)c2cc(/C=C/C(N)=O)ccc2c1=O [Example 160, (E)-3-[3-(Aminomethyl)-2-isobutyl-1-oxo-4-phenyl-1,2-dihydro-6-isoquinolinyl]-2-propenamide]	
179 to 181 °C	CC1=NN(c2ccc3c(=O)n(CC(C)C)c(CN)c(-c4ccccc4)c3c2)CO1 [Example 166, 3-(Aminomethyl)-2-isobutyl-6-(5-methyl-1,3,4-oxadiazol-3-yl)-4-phenyl-1(2H)-isoquinolinone]	
218 to 220 °C	CC(C)Cn1c(CN)c(-c2ccccc2)c2cc(SCC(N)=O)ccc2c1=O [Example 171, 2-{[3-(Aminomethyl)-2-isobutyl-1-oxo-4-phenyl-1,2-dihydro-6-isoquinolinyl]sulfanyl}acetamide]	
167 °C (dec.)	CC(C)Cn1c(CN)c(-c2ccccc2)c2cc([S+](C)[O-])ccc2c1=O (centres unmarked) [Example 172, 3-(Aminomethyl)-2-isobutyl-6-(methylsulfinyl)-4-phenyl-1(2H)-isoquinolinone]	

Second part, the molecule before the results:

SMILES	melting point	also measured
CCCCOc1c(CN)n(CC2CC2)c(=O)c2ccc(-c3cnco3)cc12.Cl	124 to 126 °C	
CCCCOc1c(CN)n(CC2CC2)c(=O)c2ccc(/C=C/C(N)=O)cc12.Cl	188 to 190 °C	
CCCCOc1c(CN)n(CC(C)C)c(=O)c2ccc(/C=C/C(N)=O)cc12.Cl	223 to 225 °C	
CCCCOc1c(CN)n(CC(C)C)c(=O)c2ccc(-c3cnco3)cc12.Cl	211 to 213 °C	
CC(C)Cn1c(CN)c(-c2cccc(F)c2)c2cc(OCC(N)=O)ccc2c1=O.Cl	209 to 210 °C	
CC(C)Cn1c(CN)c(-c2ccc(F)cc2)c2cc(OCC(N)=O)ccc2c1=O.Cl	189 to 190 °C	
CC(C)Cn1c(CN)c(-c2ccc(Cl)cc2)c2cc(O)ccc2c1=O.Cl	247 to 249 °C	
CCCCOc1c(CN)n(CC(C)C)c(=O)c2ccc(C(N)=S)cc12.Cl	200 to 202 °C	
Cc1ccc(-c2c(CN)n(CC(C)C)c(=O)c3ccc(O)cc23)cc1.Cl	255 to 256 °C	
CC(C)Cn1c(CN)c(-c2ccc(F)cc2)c2cc(/C=C/C(=O)O)ccc2c1=O.Cl	255 to 256 °C	
CCCCOc1c(CN)n(CC(C)(C)C)c(=O)c2ccc(CC(N)=O)cc12.Cl	163 to 165 °C	
CCCCOc1c(CN)n(CC(C)C)c(=O)c2ccc(C#N)cc12.Cl	135 to 136 °C	
CCCCOc1c(CN)n(CC(C)C)c(=O)c2ccc(NC(=O)C(C)C)cc12.Cl	181 to 183 °C	
CCCCOc1c(CN)n(CC(C)(C)C)c(=O)c2ccc(OCC(N)=O)cc12 (as salt: hydrochloride) [Example 95, 2-{{3-(Aminomethyl)-4-butoxy-2-neopentyl-1-oxo-1,2-dihydro-6-isoquinolinyl}oxy}acetamide hydrochloride]	233 to 235 °C	
CCCCOc1c(CN)n(CC2CC2)c(=O)c2ccc(C(N)=O)cc12.Cl (hydrate or solvate)	164 to 165 °C	
CCCCOc1c(CN)n(CC2CC2)c(=O)c2ccc(OCC(N)=O)cc12.Cl (hydrate or solvate)	133 to 134 °C	
CCCCOc1c(CN)n(CC(C)C)c(=O)c2ccc(OCC(N)=O)cc12.Cl (hydrate or solvate)	248 to 250 °C	
CCCCOc1c(CN)n(CC(C)(C)C)c(=O)c2ccc(/C=C/C(N)=O)cc12.Cl (hydrate or solvate)	187 to 188 °C	
CC(C)Cn1c(CN)c(OCCCC(F)(F)F)c2cc(OCC(N)=O)ccc2c1=O.Cl (hydrate or solvate)	147 to 148 °C	
Cc1ccc(-c2c(CN)n(CC(C)C)c(=O)c3ccc(OCC(N)=O)cc23)cc1.Cl (hydrate or solvate)	278 to 280 °C	
CCCCOc1c(CN)n(CC(C)(C)C)c(=O)c2ccc(OCC(N)=O)cc12 [Example 95, 2-{{3-(Aminomethyl)-4-butoxy-2-neopentyl-1-oxo-1,2-dihydro-6-isoquinolinyl}oxy}acetamide hydrochloride]		IC50 [1]: 0.18 µM; Plasma glucose level [2]: 82 % of control; insulin level [2]: 188 % of control; IC50 [3]: 0.28 µM
CC(C)Cn1c(CN)c(-c2ccccc2)c2cc(C(N)=O)ccc2c1=O [Example 109, 3-Aminomethyl-2-isobutyl-4-phenyl-1(2H)-isoquinolinone-6-carboxamide hydrochloride [3-(aminomethyl)-2-isobutyl-1-oxo-4-phenyl-1,2-dihydro-6-isoquinolinecarboxamide hydrochloride]]		Plasma glucose level [2]: 73 % of control; insulin level [2]: 205 % of control
CC(=O)Nc1ccc2c(=O)n(CC(C)C)c(CN)c(-c3ccccc3)c2c1.Cl [Example 112, 6-Acetylamino-3-aminomethyl-2-isobutyl-4-phenyl-1(2H)-isoquinolinone hydrochloride]		IC50 [1]: 0.32 µM; Plasma glucose level [2]: 76 % of control; insulin level [2]: 255 % of control; IC50 [3]: 0.25 µM
CC(C)(C)Cn1c(CN)c(-c2ccccc2)c2cc(Cl)ccc2c1=O [Example 122, 3-(Aminomethyl)-6-chloro-2-neopentyl-4-phenyl-1(2H)-isoquinolinone]	173 to 174 °C	
